Legend:
PF4 = target: T1, PF4 (Homo sapiens, UniProt P02776); settings: rank: heparin>heparan sulfate>dermatan sulfate>chondroitin-6-sulfate>chondroitin-4-sulfate; cited from earlier work
T1 sequence (P02776 32-101): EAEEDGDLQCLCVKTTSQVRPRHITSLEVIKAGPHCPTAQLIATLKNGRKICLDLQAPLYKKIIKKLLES

[1] = relative to heparin; cited from earlier work
[2] = system: unfractionated heparin (UFH); experiment: aPTT assay, neutralization of heparin in heparinized plasma; assay type: biochemical; settings: plasma containing up to 2 U/mL of UFH; FIG. 1 and FIG. 4
From the text: PF4 tetramers form a cylindrical structure displaying an equatorial ring of positively charged amino acids around which the polyanionic heparin molecules wrap and bind with exceptionally high affinity. The formation of a PF4-heparin complex strongly impairs the capacity of heparin to bind AT and stimulate its anticoagulant activity.
(§1) In the aPTT (also referred to as “partial thromboplastin time” or “PTT”) assay, the sample is then mixed with a phospholipid, an activator such as silica, celite, kaolin or ellagic acid, and calcium. The contact activator is used to stimulate production of Factor XIIa. The phospholipids form complexes that activate Factor X and prothrombin. Calcium is used to reverse the anticoagulant effects of the oxalate or citrate. The mixture is then allowed to form a thrombus (clot) and the time to do so is measured. An abnormal or prolonged aPTT time will vary depending on the population and local normal ranges should be known. However, as a general guideline, values over 39 seconds may be considered abnormal and prolonged according to the invention, and such samples may be candidates for further analysis using the methods of the invention.
The PF4-based reagent may be used for the in vitro neutralization of heparin in samples as assessed by the aPTT assay. […]

non-heparinized plasma = experiment: aPTT assay of non-heparinized plasma; assay type: biochemical; settings: FIG. 2 and FIG. 3
From the text: as §1
The PF4-based reagent may be used for the in vitro neutralization of heparin in samples as assessed by the aPTT assay. To ensure an accurate aPTT result the reagent must act specifically to reverse only anticoagulant activity associated with heparin, and otherwise have no effect on the plasma clotting time. […] This phenomenon might be due to PF4-induced stimulation of the thrombin-mediated cleavage of protein C to generate the potent anticoagulant activated protein C (APC). APC acts to inactivate coagulation Factors Va and VIIIa by proteolysis. […]

Substance	relative binding affinity for PF4 (PF4)	anti-coagulant potency [1]	neutralization of heparin anticoagulant activity (aPTT) [2]	effect on the aPTT of non-heparinized plasma (non-heparinized plasma)
chondroitin-4-sulfate	low relative affinity for PF4	much lower than that of heparin		
platelet factor 4 [PF4]			fully corrected to baseline	gradual prolongation of the aPTT
